Experimental data from patent US10028971B2, “Compositions and methods for treating psychiatric disorders” (GOSFORTH CENTRE (HOLDINGS) PTY LTD., priority 2008, dated 2018).

Tested on: individuals with MCI or dementia
Assay: Mild cognitive impairment and dementia, clinical cases (Developmental Eye Movement test, Alzheimer's Quick Test)
Format: in vivo, human
Conditions: person
Text: A married person with a history of good cognitive functioning until last 4-5 yrs when noted by both their spouse and themself to becoming increasingly socially withdrawn primarily because of the difficulty in listening without distraction during social interaction, no known childhood or adult history of prior attentional or impulsive disorders. It has been clinically observed by the inventor that individuals treated with low dose antiepileptic were enhanced in their ability to discriminate irrelevant from the relevant sound was enhanced. […] On ceasing the medication there was an initial improvement again over the preceding 3 to 7 days followed by a loss of the therapeutic effects and returned to their pre-medication function. On the ressumption of the 12.5 mg phenytoin there was a return of the improved function. On this second occasion they were more aware of the benefits and also the gradual return of the detrimental clinic effects. During the clinical assessment it was noted that they had more flexibility in their conversation and more natural use of non-verbal cues, there was also enhancement of their egocentric gaze. […] These benefits were also noted by their spouse. […] Again these medications were ceased resulting in a loss of associated benefits. With each trial of medication they became more apparent to the patient and their spouse of the benefits of the therapy. They attempted whilst not taking the medication to communicate and follow the conversation in a way that they had been able to whilst on treatment. They found when attempting to do so they became mentally exhausted and unable to sustain the effort required for the interaction. The improvements noted clinically and also recorded using the Developmental Eye Movement test and a measure of parietal function the Alzheimer's Quick Test. Married person diagnosed with fronto-temporal dementia. they had been assessed by neuropsychologist, and geriatrician and psychiatrist to confirm this diagnosis. […] They then relied on others to make decisions for […]. They had gradually become socially disengaged finding such interactions distressing and demanding. […] Despite ongoing difficulties of word finding they were able to socially interact more spontaneously than they had done for many years. And have confidence in areas of conversation that they previously would have avoided. […] On two occasions the medication was withdrawn and then reintroduced, due to the experimental nature of treatment and concern that there might be a significant placebo effect. […] Following the subsequent reduction there was a return of the improvement previously noted.

CCCC(CCC)C(=O)O.[Na] [sodium valproate, sodium di-n-propylacetic acid]
clinical outcome (case) (sodium valproate 40 mg): enhanced ability to follow the train of conversation
clinical outcome (case) (sodium valproate 80 mg): loss of these benefits
